The source of these data is patent KR20080020768A, “항균 효과를 갖는 목단피의 추출물로부터 분리된 신규구조의 6‘-오-바닐릴옥시파에오니플로린 화합물을유효성분으로 함유하는 조성물” (priority 2006, dated 2008).

The test system of one test is E. coli O157 ATCC 43890. As to the kind of experiment: Minimum inhibitory concentration (MIC) measurement. In kind it is cell-based. The note with it: Escherichia coli, ATCC43890, 24 h, read-out: minimum inhibitory concentration (MIC).
For test [1], the system named is Salmonella paratyphi A JOL381. As to the kind of experiment: Minimum inhibitory concentration (MIC) measurement. In kind it is cell-based. The note with it: Salmonella enterica, 24 h, read-out: minimum inhibitory concentration (MIC).
Test [2] concerns E. coli K88 standard strain (E-126) [수과연표준균주 (E-126)]. As to the kind of experiment: Minimum inhibitory concentration (MIC) measurement. Type of test: cell-based. The note with it: Escherichia coli, 24 h, read-out: minimum inhibitory concentration (MIC).
Test [3] relates to MRSA 6 animal (chicken) isolate [동물(닭) 분리주]. As to the kind of experiment: Minimum inhibitory concentration (MIC) measurement. In kind it is cell-based, methicillin-resistant S. aureus. The note with it: Staphylococcus aureus, 24 h, read-out: minimum inhibitory concentration (MIC).
Test [4] has as its system Salmonella gallinarium standard strain [수과연표준균주]. As to the kind of experiment: Minimum inhibitory concentration (MIC) measurement. Type of test: cell-based. The note with it: 24 h, read-out: minimum inhibitory concentration (MIC).
Test [5] deals with Vibrio cholerae O1 JOL375. As to the kind of experiment: Minimum inhibitory concentration (MIC) measurement. Type of test: cell-based. The note with it: O1JOL375, 24 h, read-out: minimum inhibitory concentration (MIC).
The subject of test [6] is Salmonella enteritidis standard strain (Sal-36) [수과연표준균주 (Sal-36)]. As to the kind of experiment: Minimum inhibitory concentration (MIC) measurement. In kind it is cell-based. The note with it: Salmonella enterica, 24 h, read-out: minimum inhibitory concentration (MIC).
Test [7] relates to Shigrlla dysenteriae JOL377. As to the kind of experiment: Minimum inhibitory concentration (MIC) measurement. The note with it: 24 h, read-out: minimum inhibitory concentration (MIC). In kind it is cell-based.
The test system of a further test is Salmonella typhi JOL380. As to the kind of experiment: Minimum inhibitory concentration (MIC) measurement. The note with it: Salmonella enterica, 24 h, read-out: minimum inhibitory concentration (MIC). Type of test: cell-based.
Test [8] concerns MRSA 104 human isolate [사람 분리주]. As to the kind of experiment: Minimum inhibitory concentration (MIC) measurement. The note with it: Staphylococcus aureus, 24 h, read-out: minimum inhibitory concentration (MIC). In kind it is cell-based, methicillin-resistant S. aureus.
For test [9], the system named is Salmonella typhimurium standard strain (Sal-13) [수과연표준균주 (Sal-13)]. As to the kind of experiment: Minimum inhibitory concentration (MIC) measurement. In kind it is cell-based. The note with it: Salmonella enterica, 24 h, read-out: minimum inhibitory concentration (MIC).
The next test concerns MRSA ATCC 700698. As to the kind of experiment: Minimum inhibitory concentration (MIC) measurement. Type of test: cell-based, methicillin-resistant S. aureus. The note with it: Staphylococcus aureus, 24 h, read-out: minimum inhibitory concentration (MIC).
Test [10] relates to Vibrio cholerae O139 JOL376. As to the kind of experiment: Minimum inhibitory concentration (MIC) measurement. In kind it is cell-based. The note with it: O139JOL376, 24 h, read-out: minimum inhibitory concentration (MIC).
The next test concerns E. coli O157 ATCC 35150. As to the kind of experiment: Minimum inhibitory concentration (MIC) measurement. Type of test: cell-based. The note with it: Escherichia coli, ATCC35150, 24 h, read-out: minimum inhibitory concentration (MIC).
For test [11], the system named is Shigella flexeneri JOL378. As to the kind of experiment: Minimum inhibitory concentration (MIC) measurement. In kind it is cell-based. The note with it: JOL378, 24 h, read-out: minimum inhibitory concentration (MIC).
For test [12], the system named is all 18 causative bacteria of zoonotic infectious diseases [인수 공통 감염병을 유발하는 원인균 18종 모두]. As to the kind of experiment: Minimum inhibitory concentration (MIC) measurement, all 18 strains. Type of test: cell-based. The note with it: 24 h; range over all 18 strains.
In test [13] the test system is Shigella dysenteriae ATCC 49557. As to the kind of experiment: Minimum inhibitory concentration (MIC) measurement. The note with it: ATCC49557, 24 h, read-out: minimum inhibitory concentration (MIC). Type of test: cell-based.
Test [14] deals with E. coli O157 animal isolate [동물 분리주]. As to the kind of experiment: Minimum inhibitory concentration (MIC) measurement. In kind it is cell-based. The note with it: Escherichia coli, 24 h, read-out: minimum inhibitory concentration (MIC).
For test [15], the system named is E. coli K99 standard strain (E-125) [수과연표준균주 (E-125)]. As to the kind of experiment: Minimum inhibitory concentration (MIC) measurement. Type of test: cell-based. The note with it: Escherichia coli, 24 h, read-out: minimum inhibitory concentration (MIC).

In brackets after ≈: the same amount, converted by molar mass. Some results are limits rather than exact numbers.

As to `COc1cc(C(=O)OCC2OC(OC34CC5C6(O)CC3(C)OC(O6)C54COC(=O)c3ccc(O)cc3)C(O)C(O)C2O)ccc1O` (centres unmarked) [6′-오-바닐릴옥시파에오니플로린, 6'-O-vanillyloxypaeoniflorin], the MIC is 200 mg/L (≈ 309 µM) in the test with E. coli O157 ATCC 43890; 200 mg/L (≈ 309 µM) in test [1]; 200 mg/L (≈ 309 µM) in test [2]; 300 mg/L (≈ 464 µM) in test [3]; 200 mg/L (≈ 309 µM) in test [4]; 100 mg/L (≈ 155 µM) in [5]. Moreover, the MIC (in test [6]; in [7]; in the test on Salmonella typhi JOL380; in test [8]; in [9]; in the test on MRSA ATCC 700698) was 200 mg/L (≈ 309 µM) in each case. The MIC is 100 mg/L (≈ 155 µM) in test [10]; 300 mg/L (≈ 464 µM) with E. coli O157 ATCC 35150; 200 mg/L (≈ 309 µM) in test [11]; 100 to 500 mg/L (≈ 155 to 773 µM) in [12]; 500 mg/L (≈ 773 µM) in test [13]; 200 mg/L (≈ 309 µM) in [14].

Take `NCC1OC(OC2C(N)CC(N)C(OC3OC(CO)C(O)C(N)C3O)C2O)C(O)C(O)C1O` (centres unmarked) [Kanamycin A]: the MIC with E. coli O157 ATCC 43890 was 10 mg/L (≈ 20.6 µM); in test [1], greater than 100 mg/L; in test [2], 50 mg/L (≈ 103 µM); in test [3] it was 50 mg/L (≈ 103 µM); in test [4], 50 mg/L (≈ 103 µM); in [5], greater than 100 mg/L. The MIC in test [6] is 50 mg/L (≈ 103 µM); in test [7] it was greater than 100 mg/L; in the test on Salmonella typhi JOL380 it was 50 mg/L (≈ 103 µM); in [8] it was greater than 100 mg/L; in test [9], 50 mg/L (≈ 103 µM); in the test with MRSA ATCC 700698 it was greater than 100 mg/L. For the same compound, the MIC in test [10] is 50 mg/L (≈ 103 µM); in the test with E. coli O157 ATCC 35150 it was 10 mg/L (≈ 20.6 µM); in [11], 10 mg/L (≈ 20.6 µM); in test [13] it was greater than 100 mg/L; in test [14], greater than 100 mg/L.

As to `CC1(C)S[C@@H]2[C@H](NC(=O)Cc3ccccc3)C(=O)N2[C@H]1C(=O)O` [Penicillin G], the MIC in the test on E. coli O157 ATCC 43890 was 50 mg/L (≈ 150 µM); in [1] it was greater than 100 mg/L; in test [2], 100 mg/L (≈ 299 µM); in [3], greater than 100 mg/L; in test [15], 50 mg/L (≈ 150 µM); in [4], 10 mg/L (≈ 29.9 µM). The MIC in test [5] is greater than 100 mg/L; in test [6] it was 50 mg/L (≈ 150 µM); in test [7], greater than 100 mg/L; in the test on Salmonella typhi JOL380 it was greater than 100 mg/L; in test [8] it was greater than 100 mg/L; in test [9], 10 mg/L (≈ 29.9 µM). Further, the MIC with MRSA ATCC 700698 is 100 mg/L (≈ 299 µM); in test [10], 1 mg/L (≈ 2.99 µM); in the test with E. coli O157 ATCC 35150 it was 50 mg/L (≈ 150 µM); in [11], greater than 100 mg/L; in test [13], greater than 100 mg/L; in test [14] it was greater than 100 mg/L.
